From patent US20180161262A1, “Cosmetic Method and Dermatological Topical Agent for Use Therein, Migration Imparting Agent, and Method for Screening Components for Use in Cosmetic Method for Improving Skin State” (ROHTO PHARMACEUTICAL CO., LTD., priority 2015, published 2018)

Tests used:
[1] = system: human adipose-derived stem cells; assay: Confirmation test for growth promoting effect (WST-8 method, Cell Counting Kit-8); assay type: cell-based; conditions: 72 hours; for Growth promoting effect, Ratio to blank (%): blank = 100%
Protocol: A medium in which a sample to be examined for the presence or absence of the migration imparting effect was dissolved at a predetermined concentration was prepared by using DMEM/F12 medium (manufactured by Life Technologies Corp.) containing 0.1% by volume of fetal bovine serum. Also, DMEM/F12 medium containing 0.1% by volume of fetal bovine serum unsupplemented with the sample (blank) was provided.
Then, human adipose-derived stem cells (manufactured by Kurabo Industries Ltd.; cultured to the 5th passage in STEMLIFE medium [provided by Lifeline Cell Technology]) were inoculated at 3000 cells per well with the prepared medium to a 96-well plate and cultured at 37° C. for 72 hours under 5% by volume of CO2, and then, respiratory activity of the cells was measured as an index for whether or not the cells were activated, by the WST-8 method using Cell Counting Kit-8 (manufactured by Dojindo Laboratories). Specifically, after the human adipose-derived stem cells were cultured for 72 hours, the medium of each well was replaced with DMEM/F12 medium containing Cell Counting Kit-8, which was then incubated at 37° C. for 4 hours under 5% by volume of CO2 in the dark, and then, absorbance at a wavelength of 450 nm (control wavelength: 630 nm) was measured. Each test was conducted in triplicate (n=3).
Specifically, the degree of the respiratory activity (proportional to the number of cells) was measured as the absorbance (wavelength: 450 nm) of the solution by using the WST-8 reagent. Then, the presence or absence of the growth promoting effect was confirmed by determining increase or decrease in the absorbance of the sample-containing prepared medium by using the absorbance obtained by the assay of the blank medium as a reference (100%). As for the determination of the presence or absence of growth promotion, the “stem cell growth promoting effect was present” was determined provided that the rate of stem cell growth (rate of growth with respect to the blank) was 5% or more (score + or more) according to the score shown in Table 2 below.
(§1) It is known that the doubling time of the present cells is usually 24 hours or longer, and in the confirmation test for the migration imparting effect, the human adipose-derived stem cells are taken out 20 hours after inoculation and washed, followed by the measurement of the strength of fluorescence emission. Accordingly, in this test, the growth effect of the human adipose-derived stem cells themselves is not included, and only increase in cells by migration is evaluated. On the other hand, in the confirmation test for the growth promoting effect, absorbance 72 hours after inoculation of the human adipose-derived stein cells is measured, and increase in cells by self-growth is simply evaluated.

[2] = system: human adipose-derived stem cells; assay: Confirmation test for migration imparting effect (96-well Boyden chamber, Calcein-AM fluorescence); assay type: cell-based; conditions: 20 hours; for Migration imparting effect, Ratio to blank (%): blank = 100%
Protocol: A medium of human adipose-derived stem cells (manufactured by Kurabo Industries Ltd.; cultured to the 7th passage in STEMLIFE medium [provided by Lifeline Cell Technology]) was replaced with DMEM/F12 medium (manufactured by Life Technologies Corp.), followed by culture for additional 20 hours.
Meanwhile, a medium in which a sample to be examined for the presence or absence of the migration imparting effect was dissolved at a predetermined concentration was prepared by using 0.1% by volume of fetal bovine serum (nutritional source). Also, DMEM/F12 medium containing 0.1% by volume of fetal bovine serum and not containing the sample (blank) was provided.
Then, the prepared medium was supplied at 200 μL per well to lower wells of a 96-well Boyden chamber (manufactured by Corning Inc., model number: 3384) having a membrane pore size of 8 μm. Also, the human adipose-derived stem cells cultured for 20 hours in the DMEM/F12 medium were inoculated at 30000 cells per well to upper wells of the Boyden chamber and cultured at 37° C. for 20 hours under 5% by volume of CO2.
1.2 μL/mL of Calcein-AM (fluorescent dye, manufactured by Molecular Probes/Thermo Fisher Scientific Inc.) dissolved at 1.66 mg/mL in DMSO (manufactured by Wako Pure Chemical Industries, Ltd.) was added to 10× cell dissociation solution (cell dissolution solution, manufactured by Trevigen Inc.) diluted 10-fold with sterilized water to thereby prepare an index solution for fluorescence emission having the correlation between the number of human adipose-derived stem cells and the strength of fluorescence emission.
The media in the upper and lower wells were taken out of the Boyden chamber and washed with PBS(−) (manufactured by Dojindo Laboratories), and then, the index solution for fluorescence emission was supplied at 100 μL per well to the lower wells and incubated at 37° C. for 1 hour under 5% by volume of CO2 in the dark. Then, the index solution in the lower wells after the incubation was transferred to a 96-well plate (manufactured by Greiner Bio One International GmbH) having black walls and a transparent bottom, and fluorescence intensity (excitation wavelength: 485 nm, detection wavelength: 520 nm) was measured. Each test was conducted in triplicate (n=3).
Specifically, since there is a correlation between the number of human adipose-derived stem cells and the strength of fluorescence emission as mentioned above, the presence or absence of the migration imparting effect was confirmed by determining increase or decrease in the fluorescence intensity of the lower wells by using the fluorescence intensity obtained by the assay of the blank as a reference (100%). As for the determination of the presence or absence of migration, the “migration imparting effect was present” was determined provided that the rate of stem cell migration (rate of increase with respect to the blank) was 5% or more (score + or more) according to the score shown in Table 1 below.
as §1

[3] = applied concentration 0.01 mg/mL
[4] = applied concentration 0.1 mg/mL
[5] = applied concentration 0.001 mg/mL
[6] = applied concentration 1.0 mg/mL

## copper tripeptide-1
[1]; [3]
  Growth promoting effect, Evaluation (score): +++ (130 or more and less than 140)
  Growth promoting effect, Ratio to blank (%): 130%
[1]; [4]
  Growth promoting effect, Evaluation (score): ++++ (140 or more)
  Growth promoting effect, Ratio to blank (%): 160%
[2]; [5]
  Migration imparting effect, Evaluation (score): +++ (130 or more and less than 140)
  Migration imparting effect, Ratio to blank (%): 130%
[2]; [3]
  Migration imparting effect, Evaluation (score): ++ (120 or more and less than 130)
  Migration imparting effect, Ratio to blank (%): 125%
[2]; [4]
  Migration imparting effect, Evaluation (score): +++ (130 or more and less than 140)
  Migration imparting effect, Ratio to blank (%): 131%

## caprooyl tetrapeptide-3
[1]; [3]
  Growth promoting effect, Evaluation (score): ++ (120 or more and less than 130)
  Growth promoting effect, Ratio to blank (%): 120%
[1]; [4]
  Growth promoting effect, Evaluation (score): ++ (120 or more and less than 130)
  Growth promoting effect, Ratio to blank (%): 123%
[1]; [6]
  Growth promoting effect, Evaluation (score): + (105 or more and less than 120)
  Growth promoting effect, Ratio to blank (%): 117%
[2]; [3]
  Migration imparting effect, Evaluation (score): + (105 or more and less than 120)
  Migration imparting effect, Ratio to blank (%): 109%
[2]; [4]
  Migration imparting effect, Evaluation (score): +++ (130 or more and less than 140)
  Migration imparting effect, Ratio to blank (%): 133%
[2]; [6]
  Migration imparting effect, Evaluation (score): +++ (130 or more and less than 140)
  Migration imparting effect, Ratio to blank (%): 132%
